From patent US12533362B2, “Methods for treating diseases associated with ciliopathies” (ALEXION PHARMACEUTICALS, INC., priority 2017, dated 2026)

Tests used:
[1] = target: T1, EP3 (Mus musculus, UniProt P30557); conditions: cited from earlier work
T1 sequence (P30557 1-365): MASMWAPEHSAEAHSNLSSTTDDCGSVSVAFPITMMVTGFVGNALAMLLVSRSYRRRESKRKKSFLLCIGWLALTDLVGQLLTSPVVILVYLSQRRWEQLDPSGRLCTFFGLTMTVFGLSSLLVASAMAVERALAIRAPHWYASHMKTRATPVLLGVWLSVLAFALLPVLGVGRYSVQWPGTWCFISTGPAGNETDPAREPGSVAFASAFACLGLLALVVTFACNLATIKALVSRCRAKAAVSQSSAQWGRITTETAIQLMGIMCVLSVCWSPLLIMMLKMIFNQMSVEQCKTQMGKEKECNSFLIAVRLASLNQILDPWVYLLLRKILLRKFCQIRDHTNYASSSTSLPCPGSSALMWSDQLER

[2] = tested on: control normal epithelial cells; assay: automated cilia-based ciliogenesis assay in control normal epithelial cells; format: cell-based, human
From the text: (§1) To identify compounds for treating diseases associated with ciliopathies such as, for example, NPHP, NPHP patient-derived cells were obtained and cell lines were established. Briefly, peeled renal epithelial cells, which are mostly proximal tubule cells (tbc) recovered from urine of NPHP1-deficient patients, were immortalized by retroviral gene transfer of SV40 T antigen. Cells were fixed and fluorescence-labeled with Hoechst (for nuclei staining), anti-γ-tubulin antibody (for basal bodies staining), and anti-ARL13B antibody (for cilia staining) for detection using immunofluorescence microscopy.
(§2) Briefly, NPHP patient-derived cells and control cells were cultured in complete media, at 39C (non-permissive temperature for SV40 expression), followed by automatic cilia analysis using immunofluorescence microscopy to measure ciliogenesis, e.g., in terms of % cilia. A spinning disk platform may be used for drug screening (FIG. 5, A-J) and ciliogenesis analysis of G3 multi-OMICs dataset (FIG. 29, A-E).
The cilia-based assay described above may be used to identify compounds that restore ciliogenesis. […] Automated random acquisition of 35 images per well may be performed, for example. Each image may have z-stack of 10 images taken at <1 μm intervals. Consecutive imaging of nucleus (Hoechst at 461 nm), basal body (γ-tubulin at 555 nm) and cilia (ARL13b at 647 nm) may be obtained.

[3] = target: EP2 (Mus musculus, UniProt Q62053); conditions: cited from earlier work
EP2, sequence (Q62053 whole entry): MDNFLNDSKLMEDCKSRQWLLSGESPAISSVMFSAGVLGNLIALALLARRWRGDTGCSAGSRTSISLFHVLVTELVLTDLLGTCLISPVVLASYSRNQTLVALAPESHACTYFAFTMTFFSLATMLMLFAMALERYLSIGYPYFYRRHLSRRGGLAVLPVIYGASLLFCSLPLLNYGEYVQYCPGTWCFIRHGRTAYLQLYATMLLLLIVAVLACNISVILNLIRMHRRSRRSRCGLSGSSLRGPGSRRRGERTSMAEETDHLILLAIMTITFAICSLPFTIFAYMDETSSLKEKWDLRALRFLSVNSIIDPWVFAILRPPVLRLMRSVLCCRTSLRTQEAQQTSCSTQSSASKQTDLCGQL

[4] = target: T2, EP1 (Mus musculus, UniProt P35375); conditions: cited from earlier work
T2 sequence (P35375 1-405): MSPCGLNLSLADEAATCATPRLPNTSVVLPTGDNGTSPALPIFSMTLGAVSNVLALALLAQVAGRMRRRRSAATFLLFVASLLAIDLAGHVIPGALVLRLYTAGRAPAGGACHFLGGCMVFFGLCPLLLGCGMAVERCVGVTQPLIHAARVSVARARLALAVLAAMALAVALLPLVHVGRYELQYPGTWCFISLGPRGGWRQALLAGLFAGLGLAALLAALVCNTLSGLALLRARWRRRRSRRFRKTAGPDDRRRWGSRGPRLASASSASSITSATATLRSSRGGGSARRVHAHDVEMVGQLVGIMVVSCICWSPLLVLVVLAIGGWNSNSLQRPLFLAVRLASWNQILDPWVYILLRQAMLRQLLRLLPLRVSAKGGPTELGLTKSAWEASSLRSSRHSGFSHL

[5] = tested on: zebrafish NPHP4 MO; assay: zebrafish NPHP4 morpholino (MO) model; format: in vivo
Protocol: Briefly, wild-type Tg(wt1b:GFP) transgenic zebrafish embryos were injected with morpholino (e.g., nphp4 ATG MO) at one-cell stage. At 8 hours post-fertilization (hpf), injected embryos were treated with drug or vehicle in PTU-egg water (1 mL in 12-well plates). At 24 hpf, drug treatment was renewed, and pronase was added at 36 hpf for chorion removal.

[6] = tested on: NPHP patient-derived cells; assay: automated cilia-based ciliogenesis assay in NPHP patient-derived cells; format: cell-based, human
From the text: as §1, §2
The cilia-based assay described above may be used to identify compounds that restore ciliogenesis. […] Automated random acquisition of 35 images per well may be performed, for example. Each image may have z-stack of 10 images taken at <1 μm intervals.

[7] = target: EP4 (Mus musculus, UniProt P32240); conditions: cited from earlier work
EP4, sequence (P32240 whole entry): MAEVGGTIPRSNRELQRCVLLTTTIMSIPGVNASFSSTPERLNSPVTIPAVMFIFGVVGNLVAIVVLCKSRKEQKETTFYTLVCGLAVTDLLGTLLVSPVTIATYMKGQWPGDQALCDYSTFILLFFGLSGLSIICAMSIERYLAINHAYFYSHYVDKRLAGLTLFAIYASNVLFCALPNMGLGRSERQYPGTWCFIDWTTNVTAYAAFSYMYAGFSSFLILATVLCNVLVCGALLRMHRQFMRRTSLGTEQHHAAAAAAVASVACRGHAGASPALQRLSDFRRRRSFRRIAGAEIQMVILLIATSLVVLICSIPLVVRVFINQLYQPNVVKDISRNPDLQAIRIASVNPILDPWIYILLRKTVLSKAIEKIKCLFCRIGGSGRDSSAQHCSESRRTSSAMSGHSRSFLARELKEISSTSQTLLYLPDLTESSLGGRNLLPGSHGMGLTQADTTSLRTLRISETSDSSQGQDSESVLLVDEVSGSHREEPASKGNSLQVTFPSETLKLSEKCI

[8] = tested on: URECs; assay: microarray differential expression analysis of URECs; format: cell-based, human; conditions: for top regulated genes signaling pathway, microarray: DMSO vs 0.2 μM, 2 μM and 10 μM
Protocol: Microarray analysis was performed to identify expressed genes responsible for the alprostadil-mediated restoration of ciliogenesis.

[9] = meta-analysis, multiple NPHP patient-derived cell lines

## CCCCC[C@H](O)/C=C/[C@H]1[C@H](O)CC(=O)[C@@H]1CCCCCCC(=O)O [alprostadil, prostaglandin E1]
[1]
  IC50: 1.1 nM
[2]; 2 μM vs DMSO 0.04%, CTRL cells, FIG. 8A
  ciliogenesis, meta-analysis: does not significantly affect ciliogenesis
[2]; 2 μM vs DMSO, normal control cells, FIG. 11B
  ciliogenesis rate: no significant effect on ciliogenesis rate
[3]
  IC50: 10 nM
[4]
  IC50: 36 nM
[5]; 0.5 μM and 5 μM vs DMSO
  dorsal curvature (automated quantified parameter): did not significantly affect dorsal curvature
[5]; 0.5 μM and 5 μM vs DMSO, p>0.05 Fischer's exact test
  body axis curvature (normal, class I, class II, class III): did not significantly affect body axis curvature
[5]; 0.5 μM vs DMSO, p<0.05 Fischer's exact test
  percentage of severe pronephric cysts: significantly reduced the percentage of severe pronephric cysts
[5]; 5 μM vs DMSO
  percentage of severe pronephric cysts: significantly reduced the percentage of severe pronephric cysts
[6]; 2 μM vs DMSO, NPHP1(del) cell lines PT1, 1-03-P, 1-06-P1, 1-06-P2, 1-09-P, 1-10-P, 1-12-P, FIG. 11B
  ciliogenesis rate: significantly increases ciliogenesis rate
[6]; alprostadil titration from 1 nM to 2 μM and from 100 pM to 2 μM, FIG. 7
  % ciliated cells, dose response: significantly increases % ciliated cells in a dose-dependent manner
[6]; drug screening, various tested concentrations, FIG. 5 / FIG. 6
  effect on ciliogenesis (percentage of ciliated cells) as compared with DMSO: significantly restored ciliogenesis
[6]; five independent experiments, FIGS. 26A-26E
  % ciliated cells, multi-omics phenotypic analysis: partially restores ciliogenesis
[6]; meta-analysis, FIG. 8C
  increase in the effect on ciliogenesis in NPHP patient-derived cells versus control (DMSO 0.04%): about two-fold
[6]; [9]
  linear regression pooled slope value of effect on ciliogenesis: 1.414
  linear regression range of slope values of effect on ciliogenesis: 1.333 to 1.506
[6]; vs DMSO 0.04%, PT1 cells, FIG. 8B
  ciliogenesis, meta-analysis: significantly increases ciliogenesis
[7]
  IC50: 2.1 nM
[8]; Qiazol extraction
  top regulated genes signaling pathway, microarray: down-regulation of cell adhesion and extracellular matrix, and up-regulation of interferon signaling
[8]; RLT extraction
  top regulated genes signaling pathway, microarray: down-regulation of cell adhesion and extracellular matrix
[8]; pathway analysis crossing microarray data with RNAseq of control vs patient
  alteration in gene expression in NPHP patient-derived cells compared to control cells: could reverse alteration in gene expression
